# Reference: patent US12653862B2, “Anti-senescence compounds and uses thereof” (CLEARA BIOTECH B.V., priority 2020, dated 2026)
# “Also recorded” adds a separate entry of the source. Read-outs that look alike come from different tables or passages of the source.
# What was measured:
# [1] = Peptide stability in solution; type: physicochemical
# Procedure: Both peptides were dissolved in H2O and kept at room temperature. The peptide concentration was determined for the indicated time points.
# RPE1 cells = assay: Senescent vs ctrl human RPE1 cells; type: cell-based; settings: vs FOXO4-DRI (CL03001) within one experiment
# Procedure: (§1) Human IMR90, WI38 and RPE cells were grown in Dulbecco's Modified Eagle's Medium (DMEM; Lonza) containing 10% FCS and 1% pen/strep at 37° C. with 3.0% 02 and 5.0% CO2. To induce senescence, cells were irradiated with 10Gy ionizing radiation (Gammacell 1000) and were left for a minimum of 10 days to become senescent.
# (§2) To perform viability and apoptosis assays, cells were split into 96-well plates and treated with peptides 2 days later. Non-senescent and cancer cells were plated 1500 cells/well, while senescent cells were plated at 8.000 cells/well.
# [2] = tested on: WT colon and tumor progression (TPO) organoids; assay: Cell viability of WT colon and tumor progression (TPO) organoids; type: cell-based; settings: increasing concentrations, measured 5 days later
# Procedure: (§3) Organoids were grown at 37° C. and 5% CO2 in a humidified incubator. All organoids were cultured in matrigel (Corning) droplets in advanced DMEM/F12 (Lonza) supplemented with 1% glutamax, 1% Penicillin/Streptomycin, 1% (10 mM) HEPES, 10% Noggin conditioned medium, 2% B-27 (50×; (Thermo/Life Technologies), N-acetylcysteine ((Sigma-Aldrich, 1.25 mM)), A83-01 (Tocris, 500 nM) and SB203580 (Invitrogen/Life Technologies, 3 μM). To perform viability and apoptosis assays, the organoids were passaged through resuspension in ice-cold medium, followed by centrifugation in 15 ml tubes at 4° C. The resulting pellet was trypsinized for 5 minutes at 37° C. to obtain single cells and subsequently washed twice with advanced DMEM/F12 media. These cells were then resuspended in Matrigel and plated in 96-well plates in 5 ul droplets. 100 ul fresh medium was added to the wells 15 minutes later. Peptide and chemotherapy treatment was added to the organoids 2 days after plating.
# [3] = tested on: CRC29 colorectal cancer organoids; assay: Apoptosis and viability in patient-derived colorectal cancer organoid line CRC29; type: cell-based, Human
# Procedure: as §3
# A Live/dead assay was performed on both larger organoids 3 days after peptide and/or chemotherapy treatment, or on organoids that were treated as single cells and allowed to grow out for 2 weeks before the assay was performed. […] The organoids were then imaged on a Zeiss Cell Observer microscope and the signal was quantified using FIJI. […]
# [4] = Grey hair in naturally aged mice; type: in vivo; settings: 24-month old C57BL/6J mice, 3 doses i.v., 4 weeks after first treatment, vs PBS
# Text: 24-month old C57BL/6J mice were photographed before receiving 3 doses of either PBS or CL04183 (SEQ ID NO: 55) through i.v. injection. 4 weeks after the first treatment the mice were photographed again.
# [5] = tested on: CRC29 colorectal cancer organoid line; assay: Bioluminescence of luciferase-expressing CRC29 transplanted in the caecum of immunodeficient mice; type: in vivo; settings: 3 doses, imaged two days after last dose, vs PBS
# Procedure: (§4) Mouse experiments were performed after approval from the Dutch animal ethics committee. For these experiments male NOD.Cg-Prkdc^scid Il2rg^tmlWjl/SzJ/J mice (Charles River) were employed. Human CRC29 colorectal cancer organoids containing firefly luciferase were implanted into the caecum, resulting in the formation of a primary tumor at this site. The implantation was performed under ketamine and dexmedetomidine anaesthesia. In addition, the animals received carpofen 30 min before surgery and the day after. 14 days after transplantation, the mice were sedated using isoflurane and imaged under the BioSpace Imager. Subsequently, The animals were treated with either PBS or with ′5-Fluorouracil (5-FU) at a dose of 50 mg/kg via i.p. injection. The first dose of CL04183 (2.5 mg/kg) was administered via i.v. injection 1 week after 5-FU treatment and this treatment was repeated 2 and 4 days later. 4 weeks after transplantation, the mice were imaged again to determine treatment effect and subsequently sacrificed. All organs were harvested and imaged under the BioSpace Imager again and the luciferase signal was quantified using the M3 vision software.
# [6] = tested on: CRC29 colorectal cancer organoid line; assay: CRC29 metastasis in liver and lung, human nucleoli staining; type: in vivo, mice; settings: 3 doses, vs PBS
# Procedure: as §4
# Liver and lung paraffin sections were rehydrated in decreasing concentrations of ethanol before being washed in TBS and boiled for 20 minutes in 10 mM sodium citrate buffer (PH6) for antigen unmasking. […]
# CRC29 lung metastases = assay: TUNEL assay on CRC29 lung metastases; type: in vivo, mice; settings: vs PBS
# Procedure: as §4
# A TUNEL assay was performed on lung metastases to determine apoptosis induction after treatment. […] Images were acquired using a LSM880 confocal microscope (Zeiss) and the percentage of TUNEL-positive cells was analysed using FIJI.
# [7] = tested on: triple negative breast cancer lines; assay: MTS cell viability in human breast cancer cell lines; type: cell-based; settings: increasing concentrations, 2 days
# [8] = tested on: NRAS mutated and BRAF mutated melanoma; assay: Efficacy against melanoma; type: cell-based
# IMR90 lung fibroblasts = assay: Caspase-3/7 apoptosis assay in senescent vs healthy control IMR90 cells; type: cell-based, Human; settings: for apoptosis induction by Caspase-3/7 activation, senescent vs healthy control cells: IMR90, FOXO4-DRI as control
# Procedure: as §1, §2
# (§5) For a caspase assay, Caspase-Glo 3/7 assay reagent (Promega) was added to the medium 2 days after treatment. The plates were then incubated in aluminium foil at room temperature on a shaker for 1 hour and subsequently measured with a Luminescence Plate Reader.
# TP53-TAD2 = molecular target: T1, TP53-TAD2 (Homo sapiens, UniProt P04637); assay: Fluorescence polarization with FITC-labeled TP53-TAD2; type: binding; settings: FITC-labeled TP53-TAD2 (250 nM), increasing concentrations of peptides
# T1 construct: amino acid 37 to 57 (p53-TAD2)
# Procedure: 116 μl of a solution of the specific peptides (ranging from 1 to 100 μM) were prepared. […] 35 μl were then transferred in each well of the 384-well plate. Measurements were performed in triplicates.
# Data was acquired on a ClarioStar Plus platereader. Endpoint measurement with 200 flashes per well were performed. An excitation filter with 482 nm wavelength and emission filter with 530 nm were used and gain adjustment as well as focal height adjustment were performed for each measurement. Fluorescence intensity, parallel fluorescence polarization and perpendicular fluorescence polarization were recorded.
# Data analysis was performed using MARS Version 3.4 (BMG), Microsoft Excel and GraphPad Prism Version 8.
# Caspase-3/7 activation = assay: Live imaging of Caspase-3/7 activation over time; type: cell-based
# Procedure: Organoids and IMR90 cells were grown in 96-well cell culture plates and either the 488 IncuCyte Caspase 3/7 Reagent For Apoptosis (Sartorius) or the IncuCyte Caspase 3/7 red apoptosis assay reagent (Essen Bioscience) was added to the wells. Peptides were added directly before the plate was transferred to a Zeiss Cell Observer microscope that contains a Heat and CO2-controlled compartment. Subsequently, live imaging was started where a picture was recorded every 2 hours for 60 hours. Images were processed using Zen imaging software (Zeiss).
# GBM8 glioblastoma cells [9] = assay: Caspase-3/7 activation (apoptosis) in GBM8 glioblastoma cells; type: cell-based
# Procedure: (§6) GBM8 cells were cultured in Dulbecco's Modified Eagle's Medium/Nutrient Mixture F-12 (DMEM F-12), containing high glucose, L-Glutamine, no phenol red, supplemented with 1% (10 mM) HEPES, 1% Penicillin/Streptomycin, 2% B-27 (50×), 5 μg/ml Heparin sodium salt from porcine intestinal mucosa Grade I-A, 20 ng/ml recombinant human Fibroblast Growth Factor (rhFGF) and 20 ng/ml recombinant human Epidermal Growth Factor (rhEGF). These cells were cultured in plastic ware coated with Matrigel Matrix (20× diluted in DMEM F-12) at 37° C., 5% CO2 and 3% O2 in a humified incubator.
# as §2, §5
# GBM8 glioblastoma cells [10] = assay: Loss of LDH (cell death) in GBM8 glioblastoma cells; type: cell-based; settings: GBM8, vs FOXO4-DRI
# Procedure: as §6, §2
# WI38 cells = assay: Apoptosis in healthy WI38 cells; type: cell-based, Human; settings: FIG. 9C
# Procedure: as §1, §2, §5
# [11] = tested on: colon carcinoma 3D organoid cultures; assay: Colon carcinoma 3D organoid cultures; type: cell-based
# Procedure: as §3
# [12] = tested on: normal wildtype colon organoids; assay: Normal wildtype colon organoids, with or without APC depletion; type: cell-based
# Procedure: as §3
# [13] = tested on: colon cancer 3D organoids; assay: Colon cancer 3D organoids, live/dead assay, with chemotherapy; type: cell-based
# Procedure: as §3
# A Live/dead assay was performed on both larger organoids 3 days after peptide and/or chemotherapy treatment, or on organoids that were treated as single cells and allowed to grow out for 2 weeks before the assay was performed. To perform the assay, Calcein-AM (1:1000) and Propidium Iodide (PI; 1:100) were added to the medium of the organoids to detect living and dead cells respectively. The organoids were then imaged on a Zeiss Cell Observer microscope and the signal was quantified using FIJI.
# full-length TP53 = molecular target: T2, full-length TP53 (Homo sapiens, UniProt P04637); assay: Streptavidin bead pull-down of endogenous TP53 from HEK293T lysates with biotinylated peptide; type: binding; settings: streptavidin beads, HEK293T cell lysates, vs FOXO4-DRI
# T2 construct: endogenous TP53 from lysates ofHEK293T cells; endogenous in cells; host or cells: HEK293T
# 3D colon organoids = assay: Outgrowth of 3D colon organoids after peptide exposure; type: cell-based
# Procedure: as §3
# A Live/dead assay was performed on both larger organoids 3 days after peptide and/or chemotherapy treatment, or on organoids that were treated as single cells and allowed to grow out for 2 weeks before the assay was performed. […] The organoids were then imaged on a Zeiss Cell Observer microscope and the signal was quantified using FIJI.
# MCF10 cells = assay: Caspase assay in senescent human breast epithelial MCF10 cells; type: cell-based; settings: 2 days, vs FOXO4-DRI/CL03001
# Procedure: as §5
# T1 sequence (P04637 37-57 limits assumed): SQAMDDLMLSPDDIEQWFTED
# T2 sequence (P04637 whole entry): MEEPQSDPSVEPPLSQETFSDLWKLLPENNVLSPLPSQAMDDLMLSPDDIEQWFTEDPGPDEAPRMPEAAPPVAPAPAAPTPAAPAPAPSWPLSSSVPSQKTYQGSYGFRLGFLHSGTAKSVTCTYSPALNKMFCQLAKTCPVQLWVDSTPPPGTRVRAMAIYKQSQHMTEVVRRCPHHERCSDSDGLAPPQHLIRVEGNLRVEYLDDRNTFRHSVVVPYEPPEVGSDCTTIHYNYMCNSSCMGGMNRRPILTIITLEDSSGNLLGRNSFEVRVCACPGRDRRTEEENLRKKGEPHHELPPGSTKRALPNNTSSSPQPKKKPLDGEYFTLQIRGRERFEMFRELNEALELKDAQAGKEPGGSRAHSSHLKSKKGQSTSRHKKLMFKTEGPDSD
sequence,measurement,setting,value
AKIEAAILDAFSQNWRKRRRRQRRKKRG [CL04183],stability in solution,[1],superior stability
same,selectivity and potency in senescent vs ctrl cells,RPE1 cells,superior selectivity and potency
same,"cell viability, sensitivity of organoids with colorectal cancer associated mutations",[2],"sensitizes to FOXO4-based peptides, dependent on p53"
same,apoptosis induction,[3],potently induces apoptosis
same,grey hair,[4],reduces grey hair
same,luciferase-expressing colorectal cancer cells (bioluminescence),[5],reduces luciferase-expressing colorectal cancer cells in vivo
same,colorectal cancer metastasis in liver and lung,[6],reduces colorectal cancer metastasis in liver and lung
same,apoptosis in metastatic cancer cells (TUNEL positive cancer cells),CRC29 lung metastases,induces apoptosis in metastatic cancer cells in vivo
same,"sensitivity of breast cancer cell lines (cell viability, MTS)",[7],correlating with CL04183 (SEQ ID NO: 55) sensitivity
same,efficacy against melanoma,[8],efficacy against NRAS mutated and BRAF mutated melanoma
RKKASSKIAAAILDAFSQNAWANRRSSCKRP (listed as Homo sapiens) [CL04022],"apoptosis induction by Caspase-3/7 activation, senescent vs healthy control cells",IMR90 lung fibroblasts,still better than the control
same,binding of TP53-TAD by fluorescence polarization,TP53-TAD2,more potent in binding TP53-TAD than the reference compound
same,"stability, peptide concentration over time","[1]; dissolved in H2O, room temperature, multiple days",more stable than CL04009
same,stability in solution,[1]; in solution,improved stability in solution
same,full Caspase-3/7 activation complete,Caspase-3/7 activation,60 h
same,start of Caspase-3/7 activation after administration,Caspase-3/7 activation,24 h
same,"Caspase3/-7 activation (apoptosis), potency","GBM8 glioblastoma cells [9]; GBM8, vs FOXO4-DRI",more potent than FOXO4-DRI
same,apoptosis induction,"GBM8 glioblastoma cells [9]; GBM8 glioblastoma cells, FIG. 9C",induce apoptosis in GBM8 glioblastoma cells
same,"loss of LDH (cell death), potency",GBM8 glioblastoma cells [10],more potent than FOXO4-DRI
same,apoptosis induction,WI38 cells,not in healthy Wi38 cells
same,efficacy against organoid cultures,[11]; one Microsatellite stable (MSS) line,ineffective
same,"selectivity, patient-derived colorectal cancers vs healthy control samples",[11]; patient-derived samples,selective
same,efficacy against organoid cultures,[11]; two microsatellite-unstable (MSI) lines,effective
same,potency against organoids,[12]; normal wildtype colon organoids,less potency
same,efficacy against organoids,[12]; organoids depleted for APC,effective
same,efficacy in organoids that survived chemotherapy,[13]; after 5′FluoroUracil or Oxaliplatin,more effective
same,cell death vs cell cycle arrest,[13]; colon cancer 3D organoids,"induces cell death, not merely causes a cell cycle arrest"
RKKASSKIAAAILDAFSQNGWANRRSSCKRP (listed as Homo sapiens) [CL04009],pull-down of endogenous TP53 (binding to full-length TP53),full-length TP53,potent in binding recombinant TP53-TAD2 and full-length TP53
same,"apoptosis induction by Caspase-3/7 activation, senescent vs healthy control cells",IMR90 lung fibroblasts,"superior selectivity to induce apoptosis by Caspase-3/7 activation in senescent, but not healthy control IMR90 lung fibroblasts; also recorded: very potent and selective capacity to induce apoptosis in senescent"
same,effective concentration (potency),"IMR90 lung fibroblasts; IMR90, compared with FOXO4-DRI",effective at a lower concentration
same,tumor outgrowth of organoids,3D colon organoids; 14 d after exposure,no more tumor outgrowth
same,cytotoxic vs cytostatic effect,3D colon organoids; colon organoids,cytotoxic on colon organoids and not just cytostatic
same,"apoptosis induction (caspase assay), potency",MCF10 cells,more potent in inducing apoptosis
